Drawing on patent US10206902B2, “Mono- or di-substituted indoles as dengue viral replication inhibitors” (priority 2014, dated 2019), this text covers EC50 for ten molecules.

Type in all cases: cell-based
The test system of one assay is DENV-2 NGC-Tongalike. Briefly: Tetravalent RT-qPCR assay Protocol B, serotype 2. Particulars: Dengue virus, DENV2, Vero, 96 h. As to the method:
(§1) Vero cells (4×10^4) were seeded in 96-well plates. […] Following a 2 hour incubation period, the cell monolayer was washed 3 times with assay medium to remove residual, non-adsorbed virus and cultures were further incubated for either 4 days (DENV-2 NGC-Tongalike) or 7 days (DENV-1 Djibouti strain D1/H/IMTSSA/98/606, DENV-3 strain H87 prototype, DENV-4 strain H241′) in the presence of the inhibitor. Supernatant was harvested and viral RNA load was determined by real-time quantitative RT-PCR. The 50% effective concentration (EC50), which is defined as the compound concentration that is required to inhibit viral RNA replication by 50%, was determined using logarithmic interpolation (Tables 7 and 8). RNA was isolated from 100 μL supernatant with the NucleoSpin 96 Virus kit (Filter Service, Duren, Germany) as described by the manufacturer. The sequences of the TaqMan primers (DENV-For, DENV-Rev; Table 5) and TaqMan probes (DENV-Probe Table 5) were selected from non-structural gene 3 (NS3) or NS5, of the respective flaviviruses using Primer Express software (version 2.0; Applied Biosystems, Lennik, Belgium). The TaqMan probe was fluorescently labelled with 6-carboxyfluorescein (FAM) at the 5′ end as the reporter dye, and with minor groove binder (MGB) at the 3′ end as the quencher (Table 5). One-step, quantitative RT-PCR was performed in a total volume of 25 μL, containing 13.9375 μL H2O, 6.25 μL master mix (Eurogentec, Seraing, Belgium), 0.375 μL forward primer, 0.375 μL reverse primer, 1 μL probe, 0.0625 μL reverse transcriptase (Eurogentec) and 3 μL sample. RT-PCR was performed using the ABI 7500 Fast Real-Time PCR System (Applied Biosystems, Branchburg, N.J., USA) using the following conditions: 30 min at 48° C. and 10 min at 95° C., followed by 40 cycles of 15 s at 95° C. and 1 min at 60° C. The data was analyzed using the ABI PRISM 7500 SDS software (version 1.3.1; Applied Biosystems). For absolute quantification, standard curves were generated using 10-fold dilutions of template preparations of known concentrations.
(Real-time PCR tracks product formation cycle by cycle.)

For the next assay, the system named is DENV-4 strain EDEN. Briefly: Tetravalent RT-qPCR assay Protocol A, serotype 4 EDEN. As to conditions: Dengue virus, DENV4, 72 h, RT-qPCR serotype 4 EDEN, Vero cells, day 3. As to the method: (§2) The antiviral activity of the compounds of the invention was tested against DENV-1 strain TC974#666 (NCPV), DENV-2 strain 16681, DENV-3 strain H87 (NCPV) and DENV-4 strains H241 (NCPV) and EDEN (SG/06K2270DK1/2005; GenBank accession number QG398256) in a RT-qPCR assay. Therefore, Vero cells were infected with either DENV-1, or -2, or -3, or -4 in the presence or absence of test compounds. At day 3 post-infection, the cells were lysed and cell lysates were used to prepare cDNA of both a viral target (the 3′UTR of DENV; table 2) and a cellular reference gene (β-actin, table 2). Subsequently, a duplex real time PCR was performed on a Lightcycler480 instrument. The generated Cp value is inversely proportional to the amount of RNA expression of these targets. Inhibition of DENV replication by a test compound result in a shift of Cp's for the 3′UTR gene. On the other hand, if a test compound is toxic to the cells, a similar effect on β-actin expression will be observed. The comparative ΔΔCp method is used to calculate EC50, which is based on the relative gene expression of the target gene (3′UTR) normalized with the cellular housekeeping gene (β-actin). In addition, CC50 values were determined based on the Cp values acquired for the housekeeping gene β-actin.
(§3) The culture medium consisted of minimal essential medium supplemented with 2% of heat-inactivated fetal calf serum, 0.04% gentamycin (50 mg/mL) and 2 mM of L-glutamine. Vero cells, obtained from ECACC, were suspended in culture medium and 75 μL/well was added in 96-well plates (10000 cells/well), which already contain the antiviral compounds. Typically, these plates contain a 4-fold serial dilution of 9 dilution steps of the test compound at 200 times the final concentration in 100% DMSO (500 nL; final concentration range: 25 μM-0.00038 μM). In addition, each plate contains wells which are assigned as virus controls (containing cells and virus in the absence of compound) and cell controls (containing cells in the absence of virus and compound). Once the cells were added in the plates, the plates were incubated in a fully humidified incubator (37° C., 5% CO2) until the next day. Then, DENV-1 strain TC974#666, DENV-2 strain 16681, DENV-3 strain H87 or DENV-4 strains H241 or EDEN were added. […] In parallel, 25 μL of culture medium was added to the cell controls. Next, the plates were incubated for 3 days in a fully humidified incubator (37° C., 5% CO2). After 3 days, the supernatant was removed from the wells and the cells were washed twice with ice-cold PBS (˜100 μL). The cell pellets within the 96-well plates were stored at −80° C. for at least 1 day. Next, RNA was extracted using the Cells-to-CT™ lysis kit, according to the manufacture's guideline (Applied Biosystems). The cell lysates can be stored at −80° C. or immediately used in the reverse transcription step. In preparation of the reverse transcription step, mix A (table 3A) was prepared and 7.57 μL/well was dispensed in a 96-well plate. After addition of 5 μL of the cell lysates, a five minute denaturation step at 75° C. was performed (table 3B). Afterwards, 7.43 μL of mix B was added (table 3C) and the reverse transcription step was initiated (table 3D) to generate cDNA.
(§4) Finally, a RT-qPCR mix was prepared, mix C (table 4A), dispensed in 96-well LightCycler qPCR plates to which 3 μL of cDNA was added and the qPCR was performed according to the conditions in table 4B on a LightCycler 480. Using the LightCycler software and an in-house LIMS system, dose response curves for each compound were calculated and the half maximal effective concentration (EC50) and the half maximal cytotoxic concentration (CO50) were determined (Tables 6-9).

For another assay, the system named is DENV-4 strain H241. Briefly: Tetravalent RT-qPCR assay Protocol A, serotype 4 H241. As to conditions: Dengue virus, DENV4, 72 h, RT-qPCR serotype 4 H241, Vero cells, day 3. As to the method: as §2, §3, §4
Assay [1] deals with DENV-3 strain H87 prototype. Briefly: Tetravalent RT-qPCR assay Protocol B, serotype 3. As to conditions: Dengue virus, DENV3, 168 h, RT-qPCR serotype 3 H87, Vero cells, 7 days. As to the method:
as §1

The test system of a further assay is DENV-1 strain TC974#666. Briefly: Tetravalent RT-qPCR assay Protocol A, serotype 1. As to conditions: Dengue virus, DENV1, 72 h, RT-qPCR serotype 1 TC974#666, Vero cells, day 3. As to the method:
as §2, §3, §4

The term EC50 denotes the concentration needed to bring the measured effect to its halfway point. A higher EC50 goes with a need for much substance. In the case of `COc1cc(NC(C(=O)c2c[nH]c3c(C)c(Cl)ccc23)c2ccc(F)cc2OC)cc(OCCO)c1` (single isomer, unassigned) [Compound 3A, 1-(6-chloro-7-methyl-1H-indol-3-yl)-2-(4-fluoro-2-methoxyphenyl)-2-((3-(2-hydroxyethoxy)-5-methoxyphenyl)amino)ethanone], the EC50 was < 0.28 nM with DENV-2 NGC-Tongalike; 16 nM with DENV-4 strain EDEN; 240 nM with DENV-4 strain H241; 32 nM in assay [1]; 16 nM in the assay on DENV-1 strain TC974#666.

Turning to `COc1cc(NC(C(=O)c2c[nH]c3cc(F)ccc23)c2ccc(F)cc2OC)cc(OCCO)c1` (single isomer, unassigned) [Compound 1A, 1-(6-fluoro-1H-indol-3-yl)-2-(4-fluoro-2-methoxyphenyl)-2-((3-(2-hydroxyethoxy)-5-methoxyphenyl)amino)ethanone], the EC50 was determined as 1 nM with DENV-2 NGC-Tongalike; 12 nM with DENV-4 strain EDEN; 480 nM in the assay with DENV-4 strain H241; 53 nM in assay [1]; 18 nM with DENV-1 strain TC974#666.

Take `COc1cc(NC(C(=O)c2c[nH]c3cc(OC)c(F)cc23)c2ccc(F)cc2OC)cc(OCCO)c1` (single isomer, unassigned) [Compound 7A, 2-(4-fluoro-2-methoxyphenyl)-1-(5-fluoro-6-methoxy-1H-indol-3-yl)-2-((3-(2-hydroxyethoxy)-5-methoxyphenyl)amino)ethanone]: the concentration giving a half-maximal response (EC50) in the assay with DENV-2 NGC-Tongalike was 1.6 nM; in the assay on DENV-4 strain EDEN, 23 nM; in the assay on DENV-4 strain H241 it was 470 nM; in assay [1] it was 41 nM; in the assay with DENV-1 strain TC974#666, 29 nM.

Take `COc1cc(NC(C(=O)c2c[nH]c3cc(OC)c(C)cc23)c2ccc(F)cc2OC)cc(OCCO)c1` (single isomer, unassigned) [Compound 6A, 2-(4-fluoro-2-methoxyphenyl)-2-((3-(2-hydroxyethoxy)-5-methoxyphenyl)amino)-1-(6-methoxy-5-methyl-1H-indol-3-yl)ethanone]: the EC50 with DENV-2 NGC-Tongalike was < 0.35 nM; with DENV-4 strain EDEN it was 13 nM; in the assay with DENV-4 strain H241, 200 nM; in assay [1] it was 20 nM; in the assay on DENV-1 strain TC974#666, 16 nM.

As for `COc1cc(NC(C(=O)c2c[nH]c3c(F)cc(C)cc23)c2ccc(F)cc2OC)cc(OCCO)c1` (single isomer, unassigned) [Compound 12B, 2-(4-fluoro-2-methoxyphenyl)-1-(7-fluoro-5-methyl-1H-indol-3-yl)-2-((3-(2-hydroxyethoxy)-5-methoxyphenyl)amino)ethanone], the EC50 with DENV-2 NGC-Tongalike came to 1.7 nM; in the assay on DENV-4 strain EDEN it was 17 nM; in the assay with DENV-4 strain H241 it was 290 nM; in assay [1] it was 77 nM; in the assay with DENV-1 strain TC974#666 it was 20 nM.

Turning to `COc1cc(NC(C(=O)c2c[nH]c3c(C)cc(F)cc23)c2ccc(F)cc2OC)cc(OCCO)c1` (single isomer, unassigned) [Compound 9B, 2-(4-fluoro-2-methoxyphenyl)-1-(5-fluoro-7-methyl-1H-indol-3-yl)-2-((3-(2-hydroxyethoxy)-5-methoxyphenyl)amino)ethanone], the EC50 in the assay on DENV-2 NGC-Tongalike is 0.8 nM; in the assay with DENV-4 strain EDEN, 20 nM; in the assay on DENV-4 strain H241, 390 nM; in assay [1] it was 66 nM; in the assay with DENV-1 strain TC974#666, 19 nM.

`COc1cc(NC(C(=O)c2c[nH]c3c(F)c(F)ccc23)c2ccc(F)cc2OC)cc(OCCO)c1` (single isomer, unassigned) [Compound 5B, 1-(6,7-difluoro-1H-indol-3-yl)-2-(4-fluoro-2-methoxyphenyl)-2-((3-(2-hydroxyethoxy)-5-methoxyphenyl)amino)ethanone]: the EC50 is 0.44 nM with DENV-2 NGC-Tongalike; 24 nM in the assay on DENV-4 strain EDEN; 450 nM in the assay with DENV-4 strain H241; 50 nM in assay [1]; 27 nM in the assay with DENV-1 strain TC974#666.

Consider `COc1cc(NC(C(=O)c2c[nH]c3c(C)c(F)ccc23)c2ccc(F)cc2OC)cc(OCCO)c1` (single isomer, unassigned) [Compound 2B, 2-(4-fluoro-2-methoxyphenyl)-1-(6-fluoro-7-methyl-1H-indol-3-yl)-2-((3-(2-hydroxyethoxy)-5-methoxyphenyl)amino)ethanone], for which the 50% effective concentration (EC50) with DENV-2 NGC-Tongalike came to 0.81 nM; with DENV-4 strain EDEN it was 11 nM; in the assay with DENV-4 strain H241 it was 320 nM; in assay [1], 42 nM; in the assay on DENV-1 strain TC974#666, 13 nM.

Turning to `COc1cc(NC(C(=O)c2c[nH]c3cc(Cl)ccc23)c2ccc(F)cc2OC)cc(OCCO)c1` (single isomer, unassigned) [Compound 4A, 1-(6-chloro-1H-indol-3-yl)-2-(4-fluoro-2-methoxyphenyl)-2-((3-(2-hydroxyethoxy)-5-methoxyphenyl)amino)ethanone], the EC50 is < 0.29 nM in the assay on DENV-2 NGC-Tongalike; 16 nM in the assay on DENV-4 strain EDEN; 400 nM in the assay on DENV-4 strain H241; 16 nM in assay [1]; 20 nM in the assay with DENV-1 strain TC974#666.

For the molecule `COc1cc(NC(C(=O)c2c[nH]c3c(C)c(OC)ccc23)c2ccc(F)cc2OC)cc(OCCO)c1` (single isomer, unassigned) [Compound 11A, 2-(4-fluoro-2-methoxyphenyl)-2-((3-(2-hydroxyethoxy)-5-methoxyphenyl)amino)-1-(6-methoxy-7-methyl-1H-indol-3-yl)ethanone], the EC50 in the assay on DENV-2 NGC-Tongalike worked out at 0.68 nM; with DENV-4 strain EDEN, 15 nM; in the assay with DENV-4 strain H241 it was 350 nM; in assay [1] it was 40 nM; in the assay on DENV-1 strain TC974#666, 20 nM.
